One assay concerns Venturia inaequalis. Put plainly: In vivo fungicidal evaluation, Apple Scab. Further: ranges in brackets are in %. Conditions: 200 ppm, host plants sprayed, dried, then inoculated.
A further assay concerns Plasmopara viticola. Put plainly: In vivo fungicidal evaluation, Grape Downy Mildew. Further: ranges in brackets are in %. As to conditions: 200 ppm, host plants sprayed, dried, then inoculated.
The subject of a further assay is Botrytis cinerea. Description: In vivo fungicidal evaluation, Pepper Botrytis. Further: ranges in brackets are in %. Conditions: 200 ppm, host plants sprayed, dried, then inoculated.
In the next assay the test system is Pyricularia oryzae. Format: in vivo. Conditions: 200 ppm, host plants sprayed, dried, then inoculated.
In the next assay the test system is Cercospora beticola. Put plainly: In vivo fungicidal evaluation, Sugar Beet Cercospora. Further: ranges in brackets are in %. As to conditions: 200 ppm, host plants sprayed, dried, then inoculated.
A further assay has as its system Alternaria solani. Description: In vivo fungicidal evaluation, Tomato Early Blight. Further: ranges in brackets are in %. Conditions: 200 ppm, host plants sprayed, dried, then inoculated.
Assay [1] deals with Puccinia recondita f. sp. tritici. Description: In vivo fungicidal evaluation, Wheat Leaf Rust. Further: ranges in brackets are in %. Conditions: 200 ppm, host plants sprayed, dried, then inoculated.
Assay [2] deals with Erysiphe graminis f. sp. tritici. Put plainly: In vivo fungicidal evaluation, Wheat Powdery Mildew. Further: ranges in brackets are in %. As to conditions: 200 ppm, host plants sprayed, dried, then inoculated.
Assay [3] concerns Fusarium oxysporum f. sp. cucumerinum (Fusoxc). Description: In vitro fungicidal evaluation, mycelial growth inhibition in nutrient broth. Further: ranges in brackets are in %. The assay is classed as cell-based. As to conditions: 25 ppm, 3-4 days at 21°C, rated visually. The procedure:
(§1) Test compounds are dissolved or suspended in acetone and dispersed into cell well plates containing a suspension of ground fungal mycelia in a nutrient broth. Assay plates are incubated for 3-4 days at 21°C. Growth inhibition is measured visually and is rated using the following scale:
(§2) Untreated controls, solvent blanks and reference standards are included in each test.
(§3) Assay fungi include the plant pathogens, Pythium ultimum (Pythul); Rhizoctonia solani (Rhizso); Fusarium oxysporum f. sp. cucumerinum (Fusoxc); and Pseudocercosporella herpotrichoides (Psdche).
(§4) When more than one test is run, the data are averaged. The compouds evaluated are reported by compound number given in Example 5.

Assay [4] deals with Pseudocercosporella herpotrichoides (Psdche). Described as above. Conditions: 25 ppm, 3-4 days at 21°C, rated visually. Format: cell-based. The procedure:
as §1, §2, §3, §4

The test system of another assay is Pythium ultimum (Pythul). Described as above. Format: cell-based. Conditions: 25 ppm, 3-4 days at 21°C, rated visually. Here is the method: as §1, §2, §3, §4; further: ranges in brackets are in %
For assay [5], the system named is Rhizoctonia solani (Rhizso). Described as above. The assay is classed as cell-based. Conditions: 25 ppm, 3-4 days at 21°C, rated visually. The procedure:
as §1, §2, §3, §4
Wherever PSDCHE growth inhibition rating is given: ranges in brackets are in %.
Wherever RHIZSO growth inhibition rating is given: ranges in brackets are in %.

Regarding “Butoxy(4-isopropylpyridinio)diphenylboron [Compound 11]”, in the assay on Venturia inaequalis, the “AS (Apple Scab) disease control rating” value was 8 (96 - 99). For the same substance, in the assay with Plasmopara viticola, the “GDM (Grape Downy Mildew) disease control rating” value (shortened to “GDM”) was 0 (0). Further, the “PB (Pepper Botrytis) disease control rating” value (shortened to “PB”) in the assay with Botrytis cinerea was 4 (45 - 59). Moreover, the “RB (Rice Blast) disease control rating” value in the assay on Pyricularia oryzae was 0 (0). Moreover, the “SBC (Sugar Beet Cercospora) disease control rating” value (from here on “SBC”) in the assay with Cercospora beticola is recorded as 0 (0). Also, the “TEB (Tomato Early Blight) disease control rating” value (from here on “TEB”) with Alternaria solani is 0 (0). In [1], the “WLR (Wheat Leaf Rust) disease control rating” value (from here on “WLR”) is reported as 0 (0). Besides, the “WPM (Wheat Powdery Mildew) disease control rating” value (from here on “WPM”) in [2] is given as 0 (0). Besides, in [3], the “FUSOXC growth inhibition rating” value was 9 (100). Also, the “PSDCHE growth inhibition rating” value in [4] is listed as 7 (90 - 99). For the same substance, in the assay on Pythium ultimum (Pythul), the “PHTHUL growth inhibition rating” value was 9 (100). For the same substance, in assay [5], the “RHIZSO growth inhibition rating” value was 9 (100).

“Bis(p-fluorophenyl)methyl(5-nitroisoquinolinio)boron [Compound 15]”: in the assay with Venturia inaequalis, the “AS (Apple Scab) disease control rating” value is reported as 9 (100). Further, the “GDM” value with Plasmopara viticola is listed as 0 (0). Moreover, in the assay on Botrytis cinerea, the “PB” value was 9 (100). Besides, the “RB (Rice Blast) disease control rating” value in the assay with Pyricularia oryzae is recorded as 3 (30 - 44). For the same substance, the “SBC” value in the assay with Cercospora beticola is reported as 7 (90 - 95). Further, in the assay on Alternaria solani, the “TEB” value is given as 4 (45 - 59). For the same substance, the “WLR” value in assay [1] is 0 (0). Moreover, the “WPM” value in assay [2] was 0 (0). Also, the “FUSOXC growth inhibition rating” value in [3] is 9 (100). The “PSDCHE growth inhibition rating” value in [4] is recorded as 9 (100). Also, in the assay on Pythium ultimum (Pythul), the “PHTHUL growth inhibition rating” value is listed as 9 (100). Besides, the “RHIZSO growth inhibition rating” value in assay [5] is on record as 9 (100).

In the case of “Chloro(isoquinolinio)di-p-tolylboron [Compound 12]”, in the assay on Venturia inaequalis, the “AS (Apple Scab) disease control rating” value was 0 (0). Besides, in the assay with Plasmopara viticola, the “GDM” value is recorded as 0 (0). Moreover, in the assay on Botrytis cinerea, the “PB” value was 0 (0). Moreover, the “RB (Rice Blast) disease control rating” value in the assay with Pyricularia oryzae was 0 (0). In the assay with Cercospora beticola, the “SBC” value was 7 (90 - 95). Besides, the “TEB” value in the assay with Alternaria solani is 0 (0). Besides, in [1], the “WLR” value is given as 0 (0). In addition, the “WPM” value in assay [2] is listed as 0 (0). Also, the “FUSOXC growth inhibition rating” value in assay [3] is 7 (90 - 99). The “PSDCHE growth inhibition rating” value in [4] is listed as 5 (60 - 89). In addition, in the assay with Pythium ultimum (Pythul), the “PHTHUL growth inhibition rating” value is listed as 7 (90 - 99). The “RHIZSO growth inhibition rating” value in assay [5] is 7 (90 - 99).

As to “(5,6,7,8-Tetrahydroisoquinolinio)methyldiphenylboron [Compound 4]”, in the assay with Venturia inaequalis, the “AS (Apple Scab) disease control rating” value is listed as 9 (100). In addition, the “GDM” value in the assay with Plasmopara viticola is reported as 9 (100). For the same substance, the “PB” value in the assay on Botrytis cinerea is given as 9 (100). Moreover, the “RB (Rice Blast) disease control rating” value in the assay with Pyricularia oryzae is on record as 0 (0). Further, in the assay on Cercospora beticola, the “SBC” value is 8 (96 - 99). In addition, in the assay with Alternaria solani, the “TEB” value is 6 (75 - 89). Also, the “WLR” value in assay [1] is reported as 9 (100). Besides, the “WPM” value in [2] is reported as 8 (96 - 99). Moreover, the “FUSOXC growth inhibition rating” value in assay [3] was 9 (100). The “PSDCHE growth inhibition rating” value in assay [4] is 9 (100). Also, the “PHTHUL growth inhibition rating” value in the assay on Pythium ultimum (Pythul) is on record as 7 (90 - 99). Also, the “RHIZSO growth inhibition rating” value in assay [5] is 9 (100).

For the substance “Butoxy(3-methylpyridinio)diphenylboron [Compound 10]”, the “AS (Apple Scab) disease control rating” value in the assay on Venturia inaequalis is recorded as 0 (0). Also, the “GDM” value in the assay with Plasmopara viticola is 3 (30 - 44). Moreover, the “PB” value in the assay on Botrytis cinerea is 6 (75 - 89). In the assay on Pyricularia oryzae, the “RB (Rice Blast) disease control rating” value is on record as 0 (0). For the same substance, in the assay on Cercospora beticola, the “SBC” value is 0 (0). Further, the “TEB” value in the assay on Alternaria solani was 0 (0). Also, the “WLR” value in assay [1] is recorded as 0 (0). Further, the “WPM” value in [2] is reported as 0 (0). Besides, the “FUSOXC growth inhibition rating” value in assay [3] is given as 9 (100). Moreover, the “PSDCHE growth inhibition rating” value in assay [4] was 7 (90 - 99). The “PHTHUL growth inhibition rating” value in the assay with Pythium ultimum (Pythul) is reported as 9 (100). For the same substance, the “RHIZSO growth inhibition rating” value in assay [5] was 9 (100).

For the substance “Hydroxy(4-isopropylpyridinio)diphenylboron [Compound 8]”, in the assay on Venturia inaequalis, the “AS (Apple Scab) disease control rating” value is 0 (0). Besides, in the assay with Plasmopara viticola, the “GDM” value was 4 (45 - 59). Moreover, the “PB” value with Botrytis cinerea was 0 (0). In the assay on Pyricularia oryzae, the “RB (Rice Blast) disease control rating” value is recorded as 6 (75 - 89). Besides, the “SBC” value in the assay on Cercospora beticola is 0 (0). Also, the “TEB” value in the assay on Alternaria solani was 0 (0). The “WLR” value in assay [1] is 0 (0). Further, in assay [2], the “WPM” value was 0 (0). The “FUSOXC growth inhibition rating” value in assay [3] was 9 (100). The “PSDCHE growth inhibition rating” value in assay [4] is recorded as 0 (0). In addition, in the assay with Pythium ultimum (Pythul), the “PHTHUL growth inhibition rating” value was 9 (100). The “RHIZSO growth inhibition rating” value in assay [5] is recorded as 7 (90 - 99).

As to “(3-Butylpyridinio)methyldiphenylboron [Compound 3]”, the “AS (Apple Scab) disease control rating” value with Venturia inaequalis was 9 (100). Besides, the “GDM” value with Plasmopara viticola was 9 (100). For the same substance, the “PB” value in the assay on Botrytis cinerea is 6 (75 - 89). In addition, the “RB (Rice Blast) disease control rating” value with Pyricularia oryzae is on record as 0 (0). Also, the “SBC” value in the assay on Cercospora beticola is given as 0 (0). The “TEB” value with Alternaria solani is 8 (96 - 99). Further, in assay [1], the “WLR” value is given as 8 (96 - 99). Further, the “WPM” value in [2] is on record as 8 (96 - 99). Besides, the “FUSOXC growth inhibition rating” value in assay [3] is given as 9 (100). Also, in assay [4], the “PSDCHE growth inhibition rating” value is given as 9 (100). For the same substance, in the assay with Pythium ultimum (Pythul), the “PHTHUL growth inhibition rating” value is 9 (100). For the same substance, in [5], the “RHIZSO growth inhibition rating” value is recorded as 9 (100).

For “Butoxy(4-methylpyridinio)diphenylboron [Compound 9]”, the “AS (Apple Scab) disease control rating” value with Venturia inaequalis is listed as 0 (0). Moreover, in the assay on Plasmopara viticola, the “GDM” value is reported as 0 (0). Besides, the “PB” value with Botrytis cinerea is reported as 6 (75 - 89). The “RB (Rice Blast) disease control rating” value in the assay on Pyricularia oryzae is on record as 0 (0). The “SBC” value with Cercospora beticola is reported as 0 (0). In addition, the “TEB” value in the assay with Alternaria solani was 0 (0). Besides, the “WLR” value in [1] was 0 (0). In addition, in assay [2], the “WPM” value is given as 0 (0). In assay [3], the “FUSOXC growth inhibition rating” value is listed as 9 (100). The “PSDCHE growth inhibition rating” value in [4] was 0 (0). The “PHTHUL growth inhibition rating” value in the assay on Pythium ultimum (Pythul) is 9 (100). The “RHIZSO growth inhibition rating” value in assay [5] was 0 (0).

As for “Bis(p-fluorophenyl)(isoquinolinio)methylboron [Compound 13]”, the “AS (Apple Scab) disease control rating” value in the assay on Venturia inaequalis is 7 (90 - 95). The “GDM” value in the assay with Plasmopara viticola was 9 (100). In the assay with Botrytis cinerea, the “PB” value is listed as 9 (100). Moreover, in the assay on Pyricularia oryzae, the “RB (Rice Blast) disease control rating” value is given as 7 (90 - 95). Further, in the assay with Cercospora beticola, the “SBC” value was 8 (96 - 99). For the same substance, the “TEB” value with Alternaria solani is 8 (96 - 99). The “WLR” value in assay [1] is recorded as 7 (90 - 95). In addition, in assay [2], the “WPM” value is recorded as 8 (96 - 99). The “FUSOXC growth inhibition rating” value in assay [3] is recorded as 9 (100). In addition, in [4], the “PSDCHE growth inhibition rating” value is recorded as 9 (100). In the assay with Pythium ultimum (Pythul), the “PHTHUL growth inhibition rating” value was 9 (100). Moreover, in [5], the “RHIZSO growth inhibition rating” value was 9 (100).

(Values after patent EP0624315B1, “Diaryl(pyridinio and isoquinolinio) boron fungicidal agents” (AMERICAN CYANAMID COMPANY, priority 1993, dated 1994).)
